Converted amounts (≈) assume the structure as drawn. Where two headings read alike, the source gives them in different places.
Columns and labels:
[1] = tested on: human adult liver epithelial cells (THLE-3); assay: In vitro toxicity evaluation, Sulforhodamine B; assay type: cell-based; settings: for IC50: Homo sapiens, read-out: IC50 THLE-3; for Selectivity, IC50 (THLE-3)/IC50 (D6): ratio THLE-3 vs D6
Method: (§1) For in vitro toxicological studies, the following cell line was chosen: human adult liver epithelial cells (THLE-3). THLE-3 cells express phenotypic characteristics of normal adult liver epithelial cells and constitute a valuable model for pharmacotoxicological studies.
Human adult liver epithelial cells (THLE-3) was maintained in tissue culture flasks in Waymouth's medium (Gibco, N.Y.) supplemented with 10% fetal bovine serum. Toxicity tests were performed in 96-well tissue culture plates using the protein-binding dye Sulforhodamine B. Test compounds were serially diluted and added to empty wells of the 96-well plate. THLE-3 cells in their culture medium were immediately seeded into the wells. Solvent blanks (no compound) were run in each test. After 72 hours under culture conditions cells were fixed to the plate by layering 50% TCA (4° C.) over the growth media in each well to produce a final TCA concentration of 10%. After incubating for one hour at 4° C., cultures were washed five times with tap water and left air-dried. Wells were stained for 30 min. with 0.4% (w/v) SRB in 1% acetic acid and washed four times with 1% acetic acid. Cultures were left air-dried and bound dye was solubilized with 10 mM Tris base (pH 10.5) for 15 min. on a gyratory shaker at room temperature. A Spectra MAX Plus Microtiter Plate Reader (Molecular Devices, Menlo Park, Calif.) was used to measure the optical density at wavelengths of 490-530 nm.

[2] = tested on: P. falciparum malaria parasite clone D6 (chloroquine sensitive); assay: In vitro anti-malarial activity, [3H]hypoxanthine uptake, D6 clone; assay type: cell-based, Plasmodium falciparum
Text: as §1
(§2) Two P. falciparum malaria parasite clones, W2 and D6, from Malaria Research and Reference Reagent Resource Center (MR4), were utilized in susceptibility testing. […] Test compounds were initially dissolved in DMSO and diluted 400 fold in RPMI 1640 culture medium supplemented with 25 mM Hepes, 32 mM NaHCO3 and 10% Albumax I (Gibco, N.Y.). These solutions were subsequently serially diluted two-fold with a Beckman Biomek® 1000 Robot (Fullerton, Calif.) over 11 different concentrations. The parasites were exposed to serial dilutions of each compound for 48 hrs and incubated at 37° C. with 5% O2, 5% CO2 and 90% N2 prior to the addition of [^3H]hypoxanthine. After a further incubation of 18 hrs, parasite DNA was harvested from each microtiter well using Packard Filtermate™ 196 Harvester (Meriden, Conn.) onto glass filters. Uptake of [^3H]hypoxanthine was measured with a Packard TopCount Liquid Scintillation Counter (Packard Instrument Co.).

[3] = tested on: P. berghei in mice; assay type: in vivo; settings: for toxicity in mice: highest dose tested; for toxicity in mice / blood schizonticidal activity, in words: oral
Method: Drugs were mixed in 0.5% hydroxycellulose 0.1% Tween 80 and administered orally b.i.d. on days 3, 4 and 5 postinfection. CD-1 male or female mice, 5 weeks of age, were infected with 5×10^4 parasitized erythrocytes of Plasmodium berghei KBG-173 mm strain. Blood films were taken on day +6 and weekly thereafter until day +60. Parasitemias were calculated and SD90 value (dose suppressing 90% of the parasites in treated groups compared with the infected non-treated controls) on day +6 postinfection. Mortality data was tabulated for 60 days at which time all mice surviving that were blood film negative were considered cured.
[…] The activity of these compounds were compared with the untreated control: In untreated controls, death occurs within 8-9 days. Compounds which are effective against Plasmodium berghei infection increase the mean survival time of the infected animals when compared with the untreated controls. Mice that survive after thirty days and are free of parasites in blood are considered cured.
Efficacy of the drug is determined by the number of cures at the end of a 30 day period and the increase in mean survival time over the control (ΔMST). The effect of the test drugs also could be determined by the reduction of the parasitemia (percentage of the red blood cells detected with the parasites) over the untreated control on day 6, one day after the treatment is completed. Both these methods yield virtually identical results. If the dose of test compounds are inadequate, after initial clearance, residual parasites will multiply and relapses will occur within thirty days.

[4] = tested on: P. falciparum malaria parasite clone W2 (chloroquine resistant); assay: In vitro anti-malarial activity, [3H]hypoxanthine uptake, W2 clone; assay type: cell-based, Plasmodium falciparum
Text: as §1, §2

[5] = tested on: Plasmodium berghei KBG-173 in mice; assay: Prophylactic test in mice, oral; assay type: in vivo; settings: for Mice infected and treated/Mice surviving day 60: oral; for protection from malaria (oral prophylactic activity): single dose of 0.5 mg/kg within 2 days pre-infection through 2 days post-infection
Method: Compounds were tested for oral prophylactic activity.
Drugs were mixed in 0.5% hydroxycellulose 0.1% Tween 80 and administered orally b.i.d. either on day 5, 4, 3, 2, or 1 prior to the infection or 1 or 2 days postinfection. CD-I male or female mice, 5 weeks of age, were infected with 5×10^4 parasitized erythrocytes of Plasmodium berghei KBG-173 mm strain. Blood films were taken on day +6 and weekly thereafter until day+30. […]

[6] = tested on: P. berghei in mice; assay: Suppressive blood schizontocidal test in mice, subcutaneous single dose; assay type: in vivo, Plasmodium berghei; settings: for Mice surviving 60 days/Mice infected and treated: 72 h after infection
Method: Mice were treated with a single dose of the compound administered subcutaneously 72 h after infection. Number of cures is the number of mice surviving, out of five, 60 days postinfection.

[7] = oral dose 0.25 mg/kg/day (total dose 0.75 mg/kg)
[8] = oral dose 1.0 mg/kg/day (total dose 3.0 mg/kg)
[9] = oral dose 4.0 mg/kg/day (total dose 12 mg/kg)
[10] = oral dose 16 mg/kg/day (total dose 48 mg/kg)
[11] = oral dose 64 mg/kg/day (total dose 192 mg/kg)
[12] = day of treatment 1, dose 0.5 mg/kg
[13] = day of treatment 1, dose 2 mg/kg
[14] = day of treatment 1, dose 8 mg/kg
[15] = day of treatment 1, dose 32 mg/kg
[16] = day of treatment 2, dose 0.5 mg/kg
[17] = day of treatment 2, dose 2 mg/kg
[18] = day of treatment 2, dose 8 mg/kg
[19] = day of treatment 2, dose 32 mg/kg
[20] = day of treatment −1, dose 0.5 mg/kg
[21] = day of treatment −1, dose 2 mg/kg
[22] = day of treatment −1, dose 8 mg/kg
[23] = day of treatment −1, dose 32 mg/kg
[24] = day of treatment −2, dose 0.5 mg/kg
[25] = day of treatment −2, dose 2 mg/kg
[26] = day of treatment −2, dose 8 mg/kg
[27] = day of treatment −2, dose 32 mg/kg
[28] = subcutaneous single dose 1 mg/kg
[29] = subcutaneous single dose 2 mg/kg
[30] = subcutaneous single dose 4 mg/kg
[31] = subcutaneous single dose 8 mg/kg
[32] = subcutaneous single dose 16 mg/kg
[33] = subcutaneous single dose 32 mg/kg
[34] = subcutaneous single dose 64 mg/kg
[35] = subcutaneous single dose 128 mg/kg
[36] = THLE3, THLE-3 cells, 72 hours, toxicity
[37] = Plasmodium falciparum, D6; read-out: IC50 D6 Strain
[38] = Plasmodium falciparum, W2; read-out: IC50 W2 Strain

SMILES	Selectivity, IC50 (THLE-3)/IC50 (D6) [1]	Mice surviving 60 days/Mice infected and treated [3, 7]	Mice surviving 60 days/Mice infected and treated [3, 8]	Mice surviving 60 days/Mice infected and treated [3, 9]	Mice surviving 60 days/Mice infected and treated [3, 10]	Mice surviving 60 days/Mice infected and treated [3, 11]	Mice infected and treated/Mice surviving day 60 [5, 12]	Mice infected and treated/Mice surviving day 60 [5, 13]	Mice infected and treated/Mice surviving day 60 [5, 14]	Mice infected and treated/Mice surviving day 60 [5, 15]	Mice infected and treated/Mice surviving day 60 [5, 16]	Mice infected and treated/Mice surviving day 60 [5, 17]	Mice infected and treated/Mice surviving day 60 [5, 18]	Mice infected and treated/Mice surviving day 60 [5, 19]	Mice infected and treated/Mice surviving day 60 [5, 20]	Mice infected and treated/Mice surviving day 60 [5, 21]	Mice infected and treated/Mice surviving day 60 [5, 22]	IC50 [1, 36] [ng/mL]	IC50 [2, 37] [ng/mL]	IC50 [4, 38] [ng/mL]	also measured
CCN(CC)CCCC(C)Nc1ccnc2cc(Cl)ccc12 (stereo not shown) [Chloroquine, reference compound]	463	0/7	0/7	2/7	4/7	0/7															IC50 ([1]; THLE3, 72 h): 2920 ng/mL (≈ 9.13 µM); IC50 ([2]; Plasmodium falciparum, D6, read-out: IC50 D6 Strain): 6.3 ng/mL (≈ 0.0197 µM); IC50 ([4]; Plasmodium falciparum, W2, read-out: IC50 W2 Strain): 108 ng/mL (≈ 0.338 µM)
C=C[C@@H]1[C@H]2OCOC2[C@@]23CC24c2nc5ccc(OC)cc5cc2C(=O)N[C@H]4CN13 (stereo partly shown) [Formula II]	7.0 × 10^4	7/7	7/7	7/7	7/7	7/7	5/5	5/5	5/5	5/5	5/5	5/5	5/5	5/5	5/5	5/5	5/5	18900	0.29	0.33	Mice infected and treated/Mice surviving day 60 [5, 23]: 5/5; Mice infected and treated/Mice surviving day 60 [5, 24]: 5/5; Mice infected and treated/Mice surviving day 60 [5, 25]: 5/5; Mice infected and treated/Mice surviving day 60 [5, 26]: 5/5; Mice infected and treated/Mice surviving day 60 [5, 27]: 5/5; protection from malaria (oral prophylactic activity) [5]: completely protected; activity by the subcutaneous route of administration, in words [6]: excellent activity; Mice surviving 60 days/Mice infected and treated [6, 28]: 4/5; Mice surviving 60 days/Mice infected and treated [6, 29]: 5/5; Mice surviving 60 days/Mice infected and treated [6, 30]: 5/5; Mice surviving 60 days/Mice infected and treated [6, 31]: 5/5; Mice surviving 60 days/Mice infected and treated [6, 32]: 5/5; Mice surviving 60 days/Mice infected and treated [6, 33]: 5/5; Mice surviving 60 days/Mice infected and treated [6, 34]: 5/5; Mice surviving 60 days/Mice infected and treated [6, 35]: 5/5; inhibitory activity against chloroquine sensitive malaria strain (D-6), in words ([2]; in vitro): equally potent inhibitory activity; toxicity in mice [3]: no mice showed toxicity; blood schizonticidal activity, in words [3]: very active; inhibitory activity against chloroquine resistant malaria strain (W-2), in words ([4]; in vitro): equally potent inhibitory activity
C=C[C@@H]1[C@@H](OC)[C@H](OC)[C@@]23CC24c2cc5cc(OC)ccc5nc2C(=O)N[C@H]4CN13 (stereo partly shown) [Formula I]	4.1 × 10^4	7/7	7/7	7/7	7/7	7/7	5/5	5/5	5/5	5/5	5/5	5/5	5/5	5/5	5/5	5/5	5/5	19400	0.47	0.43	Mice infected and treated/Mice surviving day 60 [5, 23]: 5/5; Mice infected and treated/Mice surviving day 60 [5, 24]: 5/5; Mice infected and treated/Mice surviving day 60 [5, 25]: 5/5; Mice infected and treated/Mice surviving day 60 [5, 26]: 5/5; Mice infected and treated/Mice surviving day 60 [5, 27]: 5/5; protection from malaria (oral prophylactic activity) [5]: completely protected; activity by the subcutaneous route of administration, in words [6]: excellent activity; Mice surviving 60 days/Mice infected and treated [6, 28]: 4/5; Mice surviving 60 days/Mice infected and treated [6, 29]: 5/5; Mice surviving 60 days/Mice infected and treated [6, 30]: 5/5; Mice surviving 60 days/Mice infected and treated [6, 31]: 5/5; Mice surviving 60 days/Mice infected and treated [6, 32]: 5/5; Mice surviving 60 days/Mice infected and treated [6, 33]: 5/5; Mice surviving 60 days/Mice infected and treated [6, 34]: 5/5; Mice surviving 60 days/Mice infected and treated [6, 35]: 5/5; inhibitory activity against chloroquine sensitive malaria strain (D-6), in words ([2]; in vitro): equally potent inhibitory activity; toxicity in mice [3]: no mice showed toxicity; blood schizonticidal activity, in words [3]: very active; inhibitory activity against chloroquine resistant malaria strain (W-2), in words ([4]; in vitro): equally potent inhibitory activity
OC(c1cc(C(F)(F)F)nc2c(C(F)(F)F)cccc12)C1CCCCN1 (stereo not shown) [Mefloquine, reference compound]	794																	2700 (≈ 7.14 µM)	3.4 (≈ 0.00899 µM)	5.6 (≈ 0.0148 µM)	

Reference: US7851508B2, “Natural product derivatives with antimalarial activity” (Radix Pharmaceuticals, Inc., priority 2008, dated 2010)
